Read-outs that look alike come from different tables or passages of the source.
Format: in vivo, Rattus norvegicus
Conditions: about 3.4 mg difethialone per kg per os (homo/hetero 4/6, each racemic), mean of six male and female rats, daily vitamin K1
Protocol: C. Extraction of Difethialone from the Liver of Rats Treated with Difethialone for the Purpose of Analysis of the Various Enantiomers of Difethialone
About 0.525 g (±0.025 g) of rat liver is weighed out accurately and placed in a 50 mL polypropylene tube. 10 mL of acetone are added and the suspension is homogenized using an Ultra-Turrax® homogenizer/disperser for a time of about 30 seconds. The homogenizer/disperser shaft is rinsed with hot water and then twice with 20 mL of acetone in a polypropylene tube. The homogenate is centrifuged for 5 minutes at a centrifugation speed of 3000 rpm (revolutions per minute). The supernatant is collected and transferred into a test tube. The sample is subjected to evaporation under a stream of nitrogen (N2) at a temperature of 40° C. so as to form a dry extract.
1 mL of acetonitrile is added to the tube containing the dry extract so as to dissolve it. The acetonitrile solution is washed twice successively with 1 mL of hexane. The lipid-free extract is dried under a stream of nitrogen (N2) at a temperature of 40° C. and is then taken up in 0.5 mL of methanol and dissolved by vortex stirring. 0.5 mL of ultra-pure (Milli-Q) water is then added. The sample is vortex-homogenized.
1 mL of dichloromethane (CH2Cl2), then 1 mL of methanol (CH3OH), then 1 mL of ultra-pure (Milli-Q) water are passed through an Oasis HLB 1 cc cartridge (WAT094225, Waters). The lipid-free liver extract (1 mL MeOH/Milli-Q H2O) containing difethialone is then loaded onto the top of the preconditioned cartridge. The liver extract penetrates through the cartridge by gravity on contact with the solid phase of the cartridge. 1 mL of washing solution formed from methanol (CH3OH) and ultra-pure water (H2O) in a 90/10 volume proportion is loaded onto the top of the cartridge. The cartridge is dried by suction under vacuum connected to the bottom of the cartridge. 1 mL of eluting solution formed from dichloromethane (CH2Cl2) and methanol (CH3OH) in a 90/10 volume proportion is then loaded onto the top of the cartridge and an eluate comprising difethialone is collected at the bottom of the cartridge. The solvent of the eluate is evaporated off under a stream of nitrogen (N2) at a temperature of 40° C. The sample is taken up in 0.5 mL of acetonitrile (NC-CH3) and the acetonitrile solution containing difethialone is filtered through a 0.2 μm filter.
The acetonitrile solution containing difethialone is analysed by high-pressure liquid chromatography on a LUX® Cellulose-3 chiral column (150×2 mm, particle size of 3 μm) (Phenomenex, Le Pecq, France) as described in point A2) above. The retention time value (t1) of the laevorotatory enantiomer of said homo-stereoisomer of difethialone according to the invention is between 7.8 minutes and 8.4 minutes (the maximum value of the peak corresponding to the […] enantiomer of said homo-stereoisomer being about 8.1 minutes, as described in FIG. 1), depending on the operating conditions, especially depending on the column temperature conditions. The retention time value (t4) of the dextrorotatory enantiomer of said homo-stereoisomer is between 13.3 minutes and 15.1 minutes (the maximum value of the peak corresponding to the […] enantiomer of said homo-stereoisomer being about 14.4 minutes), depending on the operating conditions, especially depending on the column temperature conditions. The retention time value (t3) of the dextrorotatory enantiomer of said hetero-stereoisomer of difethialone is between 11.2 minutes and 12.3 minutes (the maximum value of the peak corresponding to the dextrorotatory enantiomer of said hetero-stereoisomer being about 11.7 minutes), depending on the operating conditions, especially depending on the column temperature conditions. […]

SMILES | Hepatic content (4 hours after tube-feeding) [ng/g] | Hepatic content (9 hours after tube-feeding) [ng/g] | Hepatic content (24 hours after tube-feeding) [ng/g] | Hepatic content (48 hours after tube-feeding) [ng/g] | Hepatic content (120 hours after tube-feeding) [ng/g] | Hepatic content (168 hours after tube-feeding) [ng/g] | Hepatic content (216 hours after tube-feeding) [ng/g]
O=c1sc2ccccc2c(O)c1C1CC(c2ccc(-c3ccc(Br)cc3)cc2)Cc2ccccc21 (centres unmarked) [DFN-Hetero-laevo] | 5380.5 | 5869.5 | 3613.5 | 2804 | 1211 | 392.5 | 545
O=c1sc2ccccc2c(O)c1C1CC(c2ccc(-c3ccc(Br)cc3)cc2)Cc2ccccc21 (centres unmarked) [DFN-Hetero-dextro] | 10589.5 | 12155.5 | 8102 | 7974.5 | 5431.5 | 3011 | 4030.5
